ChEMBL document CHEMBL1201862, “PubChem BioAssay data set” (2004)
Activity calls are given as the source filed them.

How the values were obtained:
[1] = NIH-3T3 fibroblast cytotoxicity, dose response, cytotoxicity control, cell-based, fluorescence, Alamar Blue, secondary assay (AID 2327); assay type: functional;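 further: NIH-3T3 mouse fibroblasts cultured with fluconazole at 8 µg/mL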
[2] = biological target: T1, Protein RecA (Mycobacterium tuberculosis, UniProt P9WHJ3); assay: Fluorescence Cell-Free Homogeneous Dose Retest to Identify Inhibitors of RecA-Intein Splicing Activity. [Related pubchem assays (depositor defined):AID2097, AID2223, AID489010, AID492950]; assay type: functional
T1 sequence (P9WHJ3 whole entry): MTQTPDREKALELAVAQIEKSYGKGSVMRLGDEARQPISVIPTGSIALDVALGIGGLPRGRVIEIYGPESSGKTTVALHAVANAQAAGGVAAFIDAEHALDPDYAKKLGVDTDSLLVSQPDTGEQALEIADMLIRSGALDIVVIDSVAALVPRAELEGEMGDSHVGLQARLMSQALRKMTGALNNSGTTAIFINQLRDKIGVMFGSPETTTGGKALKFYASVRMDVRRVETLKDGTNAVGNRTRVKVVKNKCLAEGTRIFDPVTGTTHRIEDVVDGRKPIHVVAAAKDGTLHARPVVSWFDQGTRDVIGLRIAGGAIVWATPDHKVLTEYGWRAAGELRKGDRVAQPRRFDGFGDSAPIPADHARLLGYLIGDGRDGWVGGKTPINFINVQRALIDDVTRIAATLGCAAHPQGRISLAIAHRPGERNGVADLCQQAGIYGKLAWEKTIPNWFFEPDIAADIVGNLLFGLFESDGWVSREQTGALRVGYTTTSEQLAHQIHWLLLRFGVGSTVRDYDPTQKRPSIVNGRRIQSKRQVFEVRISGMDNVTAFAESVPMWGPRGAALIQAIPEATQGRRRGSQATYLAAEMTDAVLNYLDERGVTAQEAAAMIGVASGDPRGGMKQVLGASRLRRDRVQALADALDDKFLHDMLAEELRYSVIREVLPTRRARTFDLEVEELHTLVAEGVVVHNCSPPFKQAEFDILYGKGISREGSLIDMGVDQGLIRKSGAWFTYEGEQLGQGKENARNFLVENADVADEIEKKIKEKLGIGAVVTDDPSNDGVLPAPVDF

[3] = biological target: T2, Replicative DNA helicase DnaB (Mycobacterium tuberculosis, UniProt P9WMR3); assay: DnaB intein splicing inhibitors, dose response, biochemical, cell-free fluorescence (AID 449749); assay type: functional
T2 sequence (P9WMR3 whole entry): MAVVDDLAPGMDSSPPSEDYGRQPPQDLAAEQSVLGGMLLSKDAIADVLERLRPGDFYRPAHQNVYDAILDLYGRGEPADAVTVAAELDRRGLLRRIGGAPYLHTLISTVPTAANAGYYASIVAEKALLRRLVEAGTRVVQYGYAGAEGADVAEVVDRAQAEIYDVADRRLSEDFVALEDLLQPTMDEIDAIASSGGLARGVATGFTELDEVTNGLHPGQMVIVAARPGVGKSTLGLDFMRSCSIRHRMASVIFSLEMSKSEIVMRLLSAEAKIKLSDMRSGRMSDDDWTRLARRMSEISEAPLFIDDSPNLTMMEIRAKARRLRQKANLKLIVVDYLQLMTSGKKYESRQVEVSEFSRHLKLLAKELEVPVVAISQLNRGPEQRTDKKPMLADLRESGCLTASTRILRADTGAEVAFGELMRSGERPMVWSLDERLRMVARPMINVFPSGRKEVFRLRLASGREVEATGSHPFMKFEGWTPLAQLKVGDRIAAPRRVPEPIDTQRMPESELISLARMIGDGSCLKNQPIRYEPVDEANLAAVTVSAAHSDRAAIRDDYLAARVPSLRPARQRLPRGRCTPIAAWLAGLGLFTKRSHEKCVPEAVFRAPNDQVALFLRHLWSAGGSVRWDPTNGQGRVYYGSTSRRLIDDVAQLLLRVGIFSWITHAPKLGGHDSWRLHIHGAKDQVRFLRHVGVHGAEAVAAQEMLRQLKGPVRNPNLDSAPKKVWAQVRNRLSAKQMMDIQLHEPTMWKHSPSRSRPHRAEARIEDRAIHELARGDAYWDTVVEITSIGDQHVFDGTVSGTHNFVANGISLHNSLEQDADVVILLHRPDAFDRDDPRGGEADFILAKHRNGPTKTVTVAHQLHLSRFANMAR

[4] = HEp-2 cell cytotoxicity, dose response, cytotoxicity control for RSV inhibitor project, HTS (AID 2410); assay type: functional; details: human respiratory syncytial virus
[5] = tested on: H4; assay: Luminescence Cell-Based Dose Response HTS to Identify Activators of 5'UTR Stem-Loop Driven Prion Protein mRNA Translation in H4 Neuroglioblastoma Cells. [Related pubchem assays: 1829 (Project Summary), 1814 (Primary HTS)]; assay type: functional; details: Homo sapiens
[6] = Luminescence Cell-Based Dose Response HTS to Identify Activators of Luciferase Translation or Activity in H4 […] Cells. [Related pubchem assays: 1829 (Project Summary), 1814 (Primary HTS)]; assay type: functional
[7] = biological target: FAD-linked sulfhydryl oxidase ALR (Homo sapiens, UniProt P55789); assay: inhibitors of human ALR sulfhydryl oxidase, dose response, biochemical, H2O2 detection, luminescence, cherry-pick (AID 493248)
[8] = biological target: T3, Fatty acid synthase (Homo sapiens, UniProt P49327); assay: FAS thioesterase domain inhibitors, dose response, biochemical, endpoint fluorescence intensity, uHTS hits (AID 624327); assay type: functional;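 further: fluorescence from hydrolysis of an O-methyl fluorescein acyl ester substrate by the enzyme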
[9] = biological target: T3, Fatty acid synthase; assay: FAS thioesterase domain inhibitors, dose response, biochemical, kinetic fluorescence intensity (AID 624326); assay type: functional;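 further: rate of fluorescence rise from hydrolysis of a fluorogenic O-methyl fluorescein ester substrate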

T3 sequence (P49327 whole entry, the tested form may be a part): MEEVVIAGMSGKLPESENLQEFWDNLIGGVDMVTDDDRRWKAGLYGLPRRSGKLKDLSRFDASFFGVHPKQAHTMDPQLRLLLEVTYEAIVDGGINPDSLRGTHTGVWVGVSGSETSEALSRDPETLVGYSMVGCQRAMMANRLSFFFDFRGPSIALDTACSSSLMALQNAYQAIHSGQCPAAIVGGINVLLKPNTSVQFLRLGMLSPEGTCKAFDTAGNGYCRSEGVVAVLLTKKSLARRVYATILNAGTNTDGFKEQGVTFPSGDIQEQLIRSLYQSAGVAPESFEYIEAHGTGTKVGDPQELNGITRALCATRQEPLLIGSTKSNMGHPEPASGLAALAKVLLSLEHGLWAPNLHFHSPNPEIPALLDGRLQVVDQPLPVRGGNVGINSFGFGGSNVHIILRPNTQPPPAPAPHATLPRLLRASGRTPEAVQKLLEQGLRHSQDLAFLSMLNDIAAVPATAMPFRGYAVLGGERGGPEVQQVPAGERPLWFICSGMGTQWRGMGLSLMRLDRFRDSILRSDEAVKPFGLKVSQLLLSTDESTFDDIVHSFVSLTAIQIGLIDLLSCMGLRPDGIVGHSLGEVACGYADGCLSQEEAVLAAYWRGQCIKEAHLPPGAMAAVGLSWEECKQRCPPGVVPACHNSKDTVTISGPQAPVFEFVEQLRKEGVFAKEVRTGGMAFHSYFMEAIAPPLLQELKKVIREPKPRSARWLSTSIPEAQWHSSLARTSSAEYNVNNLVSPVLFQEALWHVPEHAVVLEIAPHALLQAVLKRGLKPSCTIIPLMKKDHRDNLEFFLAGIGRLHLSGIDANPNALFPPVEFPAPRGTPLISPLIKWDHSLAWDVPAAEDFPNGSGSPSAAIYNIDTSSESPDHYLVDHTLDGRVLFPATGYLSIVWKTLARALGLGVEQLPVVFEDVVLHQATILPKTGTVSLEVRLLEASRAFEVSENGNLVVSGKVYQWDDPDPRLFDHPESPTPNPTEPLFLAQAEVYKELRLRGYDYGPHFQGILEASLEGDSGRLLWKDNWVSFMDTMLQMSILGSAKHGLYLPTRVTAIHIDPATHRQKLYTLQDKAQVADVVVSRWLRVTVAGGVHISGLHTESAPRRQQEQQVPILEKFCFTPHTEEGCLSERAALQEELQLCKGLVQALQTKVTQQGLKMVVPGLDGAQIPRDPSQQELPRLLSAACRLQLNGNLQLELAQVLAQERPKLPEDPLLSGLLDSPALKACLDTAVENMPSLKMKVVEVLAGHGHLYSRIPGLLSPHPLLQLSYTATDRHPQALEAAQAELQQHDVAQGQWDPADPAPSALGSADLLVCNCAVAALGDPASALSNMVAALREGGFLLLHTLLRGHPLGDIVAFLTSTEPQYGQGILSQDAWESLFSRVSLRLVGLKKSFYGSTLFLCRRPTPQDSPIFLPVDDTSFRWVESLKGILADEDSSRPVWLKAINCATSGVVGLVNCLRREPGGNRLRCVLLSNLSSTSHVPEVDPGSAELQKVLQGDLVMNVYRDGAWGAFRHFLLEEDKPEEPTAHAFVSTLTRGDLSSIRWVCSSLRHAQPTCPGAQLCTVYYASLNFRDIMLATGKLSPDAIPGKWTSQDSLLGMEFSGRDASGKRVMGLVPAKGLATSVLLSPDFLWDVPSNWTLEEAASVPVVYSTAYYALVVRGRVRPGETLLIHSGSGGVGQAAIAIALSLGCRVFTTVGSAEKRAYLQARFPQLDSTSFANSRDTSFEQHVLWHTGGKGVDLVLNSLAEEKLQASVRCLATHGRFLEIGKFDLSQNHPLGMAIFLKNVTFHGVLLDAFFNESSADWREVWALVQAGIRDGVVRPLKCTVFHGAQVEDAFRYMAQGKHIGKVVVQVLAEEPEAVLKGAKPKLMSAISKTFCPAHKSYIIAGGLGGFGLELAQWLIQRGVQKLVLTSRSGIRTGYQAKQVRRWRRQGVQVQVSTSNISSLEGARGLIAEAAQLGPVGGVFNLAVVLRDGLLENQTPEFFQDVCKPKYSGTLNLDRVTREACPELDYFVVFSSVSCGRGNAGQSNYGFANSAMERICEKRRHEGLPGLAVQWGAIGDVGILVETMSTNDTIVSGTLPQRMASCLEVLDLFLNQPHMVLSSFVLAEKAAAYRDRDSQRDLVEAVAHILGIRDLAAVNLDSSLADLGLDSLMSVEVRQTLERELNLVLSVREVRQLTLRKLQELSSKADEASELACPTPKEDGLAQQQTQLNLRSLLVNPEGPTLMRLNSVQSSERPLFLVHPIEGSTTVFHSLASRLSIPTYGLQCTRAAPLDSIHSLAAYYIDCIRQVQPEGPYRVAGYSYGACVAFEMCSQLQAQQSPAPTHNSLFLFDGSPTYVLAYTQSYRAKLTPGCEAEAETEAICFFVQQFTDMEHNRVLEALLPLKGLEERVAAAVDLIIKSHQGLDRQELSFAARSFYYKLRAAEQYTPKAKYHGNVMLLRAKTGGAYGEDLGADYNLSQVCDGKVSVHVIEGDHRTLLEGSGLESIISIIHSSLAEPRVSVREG
Sequence of FAD-linked sulfhydryl oxidase ALR (P55789 whole entry, the tested form may be a part): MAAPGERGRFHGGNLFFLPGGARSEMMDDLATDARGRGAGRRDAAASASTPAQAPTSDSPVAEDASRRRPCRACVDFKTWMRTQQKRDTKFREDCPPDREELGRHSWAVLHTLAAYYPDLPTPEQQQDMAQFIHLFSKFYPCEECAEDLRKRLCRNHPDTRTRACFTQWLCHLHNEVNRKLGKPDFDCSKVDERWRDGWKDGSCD

For CCC1(c2ccc(Cl)cc2)N=C(S)N(c2ccccc2)N1 (stereo unspecified), the EC50 [1] was 14.2 µM (active).
With c1ccc(Sc2ncnc3ccccc23)cc1 the EC50 [2] was 11.2 µM (active) and the AC50 [3] was 21.9 µM (active).
For COc1ccc(-c2cc(-c3ccccc3O)[nH]n2)cc1OC, the CC50 [4] was > 50 µM (active).
For CCOC(=O)N/N=C1\CCc2ccccc21, the EC50 [5] was 11.7 µM (active) and the EC50 [6] was 7.73 µM (active).
With Cc1cc(C)c2c(c1)cc(C)c1nnc(SCC(=O)N3CCCc4ccccc43)n12 the CC50 [4] was 44.2 µM (active).
In the case of Cc1ccc2oc(-c3cccc(NC(=O)Cn4cnc5c(=O)n(C)c(=O)n(C)c54)c3)nc2c1, the EC50 [5] is reported as 6.94 µM (active) and the EC50 [6] is reported as 42.3 µM (active).
For COc1ccc(-c2ncc3ccccn23)cc1, the EC50 [5] was 32.1 µM (active) and the EC50 [6] was 101 µM (active).
In the case of CCC(=O)c1cc(F)c(N2CCN(C(=O)Cc3ccccc3)CC2)cc1C, the CC50 [4] is reported as 17 µM (active).
With CCN(CC)c1ccc(NS(=O)(=O)c2ccc3c(c2)oc(=O)n3C)c(C)c1 the AC50 [7] was 0.409 µM (active).
With O[C@H]1C[C@H](c2ccccc2)N(CC2CCCCC2)C[C@@H]1n1cc(C2CC2)nn1 the IC50 [8] was 8.28 µM (active) and the IC50 [9] was 6.52 µM (active).
For Cc1cccc(NNC(=O)C(=O)NNc2cccc(C)c2)c1, the EC50 [1] was 2.38 µM (active).
With Cc1c(Br)c([N+](=O)[O-])nn1CC(=O)N1CCc2ccccc2C1 the IC50 [8] was 4.38 µM (active) and the IC50 [9] was 6.67 µM (active).
For CCOc1ccc(S(=O)(=O)N2CCC(C(=O)NCC(=O)Nc3cccc(Cl)c3C)CC2)cc1, the CC50 [4] was 49.1 µM (active).
In the case of CCc1cccc(NC(=O)c2cccc3c2C(=O)N(C2CCCCC2)C3)c1, the CC50 [4] is reported as 38.1 µM (active).
In the case of CC(=O)Nc1ccc(N2C(=O)CSC2c2ccc(F)cc2)cc1 (stereo unspecified), the AC50 [7] is reported as < 0.005 µM (active).
In the case of CC(C(=O)NCCc1ccccc1)N1c2cccc3cccc(c23)S1(=O)=O (stereo unspecified), the CC50 [4] is reported as 45.6 µM (active).
For CC(C(=O)NC1C=CS(=O)(=O)C1)N1C(=O)/C(=C\c2ccccc2)SC1=S (stereo unspecified), the AC50 [7] was 0.359 µM (active).
In the case of COc1ccc(N2CCN(C(=O)c3ccc(-n4nc(C)cc4C)cc3)CC2)cc1, the CC50 [4] is reported as 42 µM (active).
For CC(OC(=O)c1cccc([N+](=O)[O-])c1)C(=O)N1CCc2ccccc21 (stereo unspecified), the IC50 [8] was 3.92 µM (active) and the IC50 [9] was 3.98 µM (active).
